Twelve compounds from patent US20250154154A1 (Relay Binney Street, 2nd Floor, priority 2020, published 2025) can be followed below.

One assay has as its target SRC (Homo sapiens, UniProt P12931). The assay is described as follows: SRC Biochemical Assay Protocol (microfluidic mobility shift assay, FLPeptide4 substrate). The procedure, abridged:
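Mobility-shift readout of phosphorylated FLPeptide4 (1.5 μM) after 90 min kinase reaction with 50 μM ATP and 0.26 nM SRC in pH 7.4 HEPES buffer. Compounds, tested 0.0017–100 μM, were preincubated 30 min with enzyme and peptide; IC50 from 4-parameter logistic fit versus neutral controls.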

In another assay the test system is RBE cells. Briefly: Cell Viability Protocol (CellTiterGlo), RBE cells. The class given is cell-based. The following applies: RBE or SNU-1079 cells, 72 or 120 hour, cell line and time not given. On the procedure:
RBE or SNU-1079 cells were cultured in T-75 or T-175 flasks at 37° C., 5% CO2, 95% relative humidity in RPMI 1640 medium with 10% FBS and 1% Penicillin/Streptomycin (media) and detached with 0.25% trypsin/EDTA at 80-90% confluency. Cells were then seeded in 40 μL media per well in 384-well flat-bottom polystyrene microplates (Corning Cat. No. 3570) at a seeding density of 1200 cells/well and incubated for 24 hours at 37° C. with 5% CO2, 95% relative humidity. On the next day, test compounds were prepared in 10 mM DMSO stock solution and diluted to the indicated concentrations in a 384-well compound source plate. DMSO was employed as a vehicle control. Compounds (40 nL) were transferred to 384-well cell culture plate(s) using the liquid handler Echo550. Plates were incubated at 37° C. with 5% CO2 for 72 hour or 120 hour (as indicated). CellTiterGlo reagent was warmed to 37° C. and added into each well (40 μL per well). Plates were incubated at room temperature for 30 min followed by reading on the EnSpire or EnVision plate reader. Relative viability (% remaining activity) was calculated relative to DMSO control and IC50 values were obtained from dose-response data fitted to a 4-parameter curve.

Chain of SRC (P12931 whole entry, species assumed): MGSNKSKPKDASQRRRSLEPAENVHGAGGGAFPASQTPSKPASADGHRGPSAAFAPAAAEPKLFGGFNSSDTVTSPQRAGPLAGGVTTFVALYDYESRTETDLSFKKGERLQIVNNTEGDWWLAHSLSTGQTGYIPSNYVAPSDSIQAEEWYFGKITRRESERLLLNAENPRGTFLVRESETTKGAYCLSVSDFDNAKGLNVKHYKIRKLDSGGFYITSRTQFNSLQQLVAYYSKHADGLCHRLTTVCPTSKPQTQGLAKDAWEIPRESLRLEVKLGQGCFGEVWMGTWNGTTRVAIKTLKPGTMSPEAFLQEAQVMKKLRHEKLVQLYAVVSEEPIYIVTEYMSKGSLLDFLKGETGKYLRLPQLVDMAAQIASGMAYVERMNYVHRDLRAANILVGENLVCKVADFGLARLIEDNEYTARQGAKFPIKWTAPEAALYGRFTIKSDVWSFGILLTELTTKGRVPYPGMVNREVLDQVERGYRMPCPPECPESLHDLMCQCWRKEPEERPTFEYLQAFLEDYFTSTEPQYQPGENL

In the case of `CC(C)n1c(C#CC2CCN(C(CO)c3ccccc3)CC2)c(-c2ccc(Oc3ccccc3)cc2)c2c(N)ncnc21` (stereo not drawn) [II-143, 2-(4-((4-amino-7-isopropyl-5-(4-phenoxyphenyl)-7H-pyrrolo[2,3-d]pyrimidin-6-yl)ethynyl)piperidin-1-yl)-2-phenylethanol], the IC50 was in the range of 10 to 1000 nM on SRC and 1000 to 10000 nM in the assay with RBE cells.
For `C=CC(=O)N1CCC(C#Cc2c(-c3ccc(Oc4ccccc4F)cc3)c3c(N)ncnc3n2C2CCOC2)CC1` (stereo not drawn) [Example I-62], in that order: 10 to 1000 nM and 10 to 1000 nM.
As to `CC(C)n1c(C#CC2CCN(Cc3ccccc3)CC2)c(-c2ccc(Oc3ccccc3)cc2)c2c(N)ncnc21` [II-145, 6-((1-benzylpiperidin-4-yl)ethynyl)-7-isopropyl-5-(4-phenoxyphenyl)-7H-pyrrolo[2,3-d]pyrimidin-4-amine], the IC50 at SRC was in the range of 10 to 1000 nM; in the assay on RBE cells, 1000 to 10000 nM.
`C=CC(=O)N1CCC(C#Cc2c(-c3ccc(Oc4ccccc4)cc3)c3c(N)ncnc3n2C(C)C)(OC)CC1` [Example I-35]: the IC50 at SRC and in the assay with RBE cells was 10 to 1000 nM throughout.
As for `C=CC(=O)N1CCC(C#Cc2c(-c3ccc(Oc4ccccc4)cc3)c3c(N)ncnc3n2C(C)c2noc(COC)n2)CC1` (stereo not drawn) [Example I-58], the IC50 on SRC and in the assay with RBE cells was 10 to 1000 nM each time.
Consider `CN(C)C/C=C/C(=O)N1C[C@@H]2[C@@H](C#Cc3c(-c4ccc(Oc5cccc(F)c5)cc4)c4c(N)ncnc4n3C)[C@@H]2C1` [II-43], for which the IC50 on SRC was 10 to 1000 nM; in the assay with RBE cells it was at most 10 nM.
For the compound `CC(=O)N1CCC(C#Cc2c(-c3ccc(Oc4ccccc4)cc3)c3c(N)ncnc3n2C(C)C)CC1` [II-139, 1-(4-((4-amino-7-isopropyl-5-(4-phenoxyphenyl)-7H-pyrrolo[2,3-d]pyrimidin-6-yl)ethynyl)piperidin-1-yl)ethanone], the IC50 at SRC and with RBE cells was 10 to 1000 nM throughout.
For `C=CC(=O)N1CCC(N2CC(C#Cc3c(-c4ccc(Oc5ccccn5)cc4)c4c(N)ncnc4n3C)C2)C[C@H]1CO` (stereo partly drawn) [II-244, 1-((2S)-4-(3-((4-amino-7-methyl-5-(4-(pyridin-2-yloxy)phenyl)-7H-pyrrolo[2,3-d]pyrimidin-6-yl)ethynyl)azetidin-1-yl)-2-(hydroxymethyl)piperidin-1-yl)prop-2-en-1-one], the IC50 at SRC and in the assay on RBE cells was 10 to 1000 nM in each case.
With `CC(CO)N1CCC(C#Cc2c(-c3ccc(Oc4ccccc4)cc3)c3c(N)ncnc3n2C(C)C)CC1` (stereo not drawn) [II-146, 2-(4-((4-amino-7-isopropyl-5-(4-phenoxyphenyl)-7H-pyrrolo[2,3-d]pyrimidin-6-yl)ethynyl)piperidin-1-yl)propan-1-ol], the values for the IC50 at SRC and in the assay on RBE cells were at most 10 nM and 10 to 1000 nM, respectively.
For the compound `C=CC(=O)N1CCC(O)(C#Cc2c(-c3ccc(Oc4ccccc4F)cc3)c3c(N)ncnc3n2C)CC1` [Example I-66], the IC50 at SRC and with RBE cells was 10 to 1000 nM throughout.
`CC(c1ccccc1)N1CCC(C#Cc2c(-c3ccc(Oc4ccccc4)cc3)c3c(N)ncnc3n2C(C)C)CC1` (stereo not drawn) [II-144, 7-isopropyl-5-(4-phenoxyphenyl)-6-((1-(1-phenylethyl)piperidin-4-yl)ethynyl)-7H-pyrrolo[2,3-d]pyrimidin-4-amine]: the figures for the IC50 at SRC and in the assay on RBE cells were 10 to 1000 nM and 1000 to 10000 nM, respectively.
As to `COCCN(C)C/C=C/C(=O)N1C[C@@H]2[C@@H](C#Cc3c(-c4ccc(Oc5cccc(C)n5)cc4OC)c4c(N)ncnc4n3C)[C@@H]2C1` [II-235, (E)-1-((1R,5S,6s)-6-((4-amino-5-(2-methoxy-4-((6-methylpyridin-2-yl)oxy)phenyl)-7-methyl-7H-pyrrolo[2,3-d]pyrimidin-6-yl)ethynyl)-3-azabicyclo[3.1.0]hexan-3-yl)-4-((2-methoxyethyl) (methyl)amino)but-2-en-1-one], the figures for the IC50 at SRC and with RBE cells were 10 to 1000 nM and 1000 to 10000 nM, respectively.
